# Source: US6548505B1, “Radioprotectors” (Peter MacCallum Cancer Institute, priority 1995, dated 2003)
# Several values for one entry are separate records, joined by “and”; a condition that tells them apart may be missing. Equal values may be shown once.
# Assays:
# [1] = tested on: Chinese Hamster Ovary (CHO) fibroblasts; test: Radioprotection survival curves of cultured CHO cells (FIG. 7, Table 5); type: cell-based; settings: 30 μM, ratio of doses reducing survival to 10% of control
# From the text: where S is the survival fraction at dose D Gy, and α and β are constants.
# The fitted values of α and β were used to calculate the radiation doses (D0.1) corresponding to a survival fraction of 0.1. The ratio of the D0.1 values with and without protector, then provided the Dose Modification Factor (DMF) for each compound:
# DMF=D0.1(with protector)/D0.1(without)
# mouse lung = test: Mouse lung model, bilateral lung irradiation; type: in vivo; settings: maximum breathing rate up to 24 weeks, FIG. 5
# From the text: Irradiation of mouse lung, at appropriate doses, results in fatal loss of lung function. The onset of damage is signalled by an increase in breathing rate. The dose response and kinetics of loss of lung function following irradiation of both lungs varies between different mouse strains.
# The procedures for irradiation and measurement of breathing rate were essentially as described by Travis et al^3. Groups of 5-6 male DBA/2J mice were anaesthetised and irradiated with 250 kV X-rays (single dose) using a jig that shielded all the body except for both lungs. A thin midline lead strip was used to shield spinal cord between the lungs.
# At weekly intervals, from 4-6 weeks post-irradiation, the breathing rate was measured for each mouse. The mouse was held in a small chamber equipped with a microphone and the output analysed on a PC. The mean breathing rate was determined for each of 3 periods of 2 seconds and the average of these readings was recorded as the breathing rate. The recorded breathing rates for each group of mice were averaged and the standard error calculated.
# All mice were monitored daily for signs of respiratory distress (hunched appearance, raised hair), with particular attention being paid to those mice showing elevated breathing rate.
# The radioprotector (2 mg/25 g mouse) was administered 30 minutes prior to the single irradiation dose.
# V79 cells [2] = test: Cytotoxicity, clonogenic survival of V79 cells without irradiation
# Experimental: (§1) Monolayers of V79 cells were maintained in 25 cm^2 Falcon plastic flasks in alpha-MEM medium with 10% foetal calf serum (FCS). Log phase cultures were treated by adding the required amount of Hoechst 33258, Hoechst 33342 or para dimethylamino Hoechst (25-500 nmoles) dissolved in 50 μL 10 μM acetic acid in 50% methanol. The flasks were inverted immediately prior to adding the compound to ensure complete mixing of the compound with the medium, before contact with the monolayer.
# (§2) After 2 hours incubation at 37° C., the cells were harvested and assayed for clonogenic survival. […] All clonogenic survival results are expressed relative to the untreated controls.
# (§3) Hoechst 33258, Hoechst 33342 or para dimethylamino Hoechst was added to the media of monolayers of V79 cells, to the indicated final concentrations. […] All cultures were held for a further one hour prior to plating for clonogenic survival.
# V79 cells [3] = test: Radioprotection, clonogenic survival of irradiated V79 cells; type: cell-based; settings: for Protector plus irradiation (12 Gy), survival fraction relative to untreated control cells / Protection Factor: 12 Gy; for Protection Factor: ratio of survival fractions with and without protector; for DMF: survival curves FIG. 3
# Experimental: as §1, §2
# Cultures were irradiated in a 137Cs Gammacell-40 (Atomic Energy of Canada Ltd.) at a dose rate of 0.84 Gy/min. Ligand-treated cells were irradiated two hours after starting the exposure to the ligand. In all cases, the clonogenic survival was delayed until one hour after completion of irradiation.
# as §3
# Mono layer cultures of V79 cells were exposed to various concentrations of the three radioprotectors, as described in (a) above. After two hours, the cells were chilled and kept cold during the isolation of nuclei, using 0.08% w.v Triton X-100. After counting an aliquot of the nuclear suspension, the ligands were extracted and quantitated by spectrophotometry and the nuclear content calculated. The survival results shown in the lower part of FIG. 1 were replotted using the nuclear uptake data and the results are shown in FIG. 2.
# The first three columns show survival fraction relative to that for untreated control cells. Each row represents a separate experiment and the figures are the means of duplicates. The figures in square brackets is the mean of a number of the results of a number of experiments done over the relevant period. The protection factor is the ratio of survival fractions for irradiated cells, with and without protector.
# A number of bibenzimidazoles represented by formula (I) have been synthesised and assayed for radioprotective activity in cell culture. Assays were conducted using V79 fibroblasts and involved exposure of the cells to a single radiation dose (12Gy) and comparison of the clonogenic survival with and without the inclusion of the protector in the cell culture medium. The ratio of the survival fractions (with protector/without), designated the protection ratio (PR12Gy), provides a measure of the extent of radioprotection. The experimental protocol adopted was as in Example 12.
# pig skin = test: Pig skin studies, topical radioprotector cream; type: in vivo; settings: cream 0.15 g/field
# From the text: The pig skin model is described by J. W. Hopewell^4. The structural similarities between human and pig skin underlie the relevance of the model.
# Although some pig skin studies involve external beam irradiation, a particularly convenient radiation source is discs containing β-emitting isotopes, typically ^90Sr. The sources can be held to the skin, or for higher doses, taped to the animal, for appropriate periods of time to deliver the required dose. The discs are typically about 2 cm in diameter so that an array of different doses can be arranged on the flanks of a single animal.
# The “acute” reactions (3-9 weeks after irradiation) result from radiation damage to the basal cells of the epidermis, and are manifest as erythema, and dry and moist desquamation. The “late” reactions (10-16 weeks) results from radiation effects to the dermal vascular connective tissue, characterized by a dusky mauve erythema and necrosis. The scoring system is well described.
# The radioprotectors were formulated in a propylene glycol cream containing 10% DMSO. The extent and kinetics of penetration were followed by fluorescence microscopy of frozen skin sections, to enable optimization of delivery.
# Radiation dose response curves were constructed for radiation only fields. The results of fields with radioprotector creams are shown in Table 3 below, with the respective cream (vehicle) only controls. The decrease in extent of skin reaction for the test fields is evident.
# HT29 = test: Radioprotection DMF in HT29 cells (Table 1); type: cell-based; settings: HT29, 8.7 μM
# [4] = tested on: mouse brain endothelial cells; test: Protection of mouse brain endothelial cells; type: in vivo; settings: 80 mg/kg i.v. 10 minutes prior to radiation, within 24 hours, FIG. 6
# Experimental: Irradiation of rodent brain results in the loss of a subset of brain endothelial cells within 24 hours after irradiation.
# Endothelial cell numbers were scored as described by Lyubimova et al. Each point represents the mean for 3-4 mice; 3 sections were scored for each animal, a total of 30 fields were scored for each section, and the figure indicates the average number of cells per field. The error bars indicate standard errors.
# CHO = test: Radioprotection DMF in CHO cells (Table 1, existing radioprotector); type: cell-based; settings: 4 mM
smiles,measurement,setting,value
"Cc1cc(N(C)C)ccc1-c1nc2cc(-c3nc4cc(N5CCN(C)CC5)ccc4[nH]3)ccc2[nH]1 [Compound 5, ortho methyl para dimethylamino Hoechst]",DMF,[1],1.66
same,"DMF, maximum breathing rate",mouse lung,1.4
same,"Protector only (no irradiation), survival fraction relative to untreated control cells",V79 cells [2]; 20 μM,0.71 and 0.63 and 0.88
same,"Protector plus irradiation (12 Gy), survival fraction relative to untreated control cells",V79 cells [3]; 20 μM,0.15 and 0.145 and 0.12
same,Protection Factor,V79 cells [3]; 20 μM,4.4 and 4.0 and 4.3
same,DMF,"V79 cells [3]; V79, 30 μM",2.1
same,"Protection ratio 12Gy, Exp 5","V79 cells [3]; V79, 12Gy 137Cs-γ, 30 μM",17.4
same,"Protection ratio 12Gy, Exp 10","V79 cells [3]; V79, 12Gy 137Cs-γ, 30 μM",18.7
same,Fields showing moist desquamation (10 weeks post-Irr.) #,"pig skin; 40 Gy, 5000 μg/g",4/8
same,Fields showing moist desquamation (10 weeks post-Irr.) %,"pig skin; 40 Gy, 5000 μg/g",50%
same,Fields showing moist desquamation (10 weeks post-Irr.) #,"pig skin; 44 Gy, 5000 μg/g",4/8
same,Fields showing moist desquamation (10 weeks post-Irr.) %,"pig skin; 44 Gy, 5000 μg/g",50%
"CCOc1ccc(-c2nc3ccc(-c4nc5ccc(N6CCN(C)CC6)cc5[nH]4)cc3[nH]2)cc1 [Hoechst 33342, 4-ethoxy-1-{5′[5′″-(4′″-methylpiperazin-1′″-yl)benzimidazol-2″-yl]benzimidazol-2′-yl}benzene, reference compound]",DMF,HT29,1.5
same,"Protector only (no irradiation), survival fraction relative to untreated control cells",V79 cells [2]; 21 μM,0.80 and 0.87 and 0.76
same,concentration above which the protector becomes cytotoxic,"V79 cells [2]; V79 cells, no irradiation, clonogenic survival, FIG. 1",20 to 30 µM
same,loss of endothelial cells of mouse brain after irradiation,[4],protected
same,"Protector plus irradiation (12 Gy), survival fraction relative to untreated control cells",V79 cells [3]; 21 μM,0.05 and 0.06 and 0.051
same,Protection Factor,V79 cells [3]; 21 μM,2.3 and 2.7
same,DMF,"V79 cells [3]; V79, 21 μM",1.3
same,"Protection ratio 12Gy, Exp 1","V79 cells [3]; V79, 12Gy 137Cs-γ, 20 μM",7.2
same,"Protection ratio 12Gy, Exp 4","V79 cells [3]; V79, 12Gy 137Cs-γ, 20 μM",11.8
same,"Protection ratio 12Gy, Exp 9","V79 cells [3]; V79, 12Gy 137Cs-γ, 20 μM",7.1
same,Fields showing moist desquamation (10 weeks post-Irr.) #,"pig skin; 36 Gy, 5000 μg/g",3/7
same,Fields showing moist desquamation (10 weeks post-Irr.) %,"pig skin; 36 Gy, 5000 μg/g",43%
same,Fields showing moist desquamation (10 weeks post-Irr.) #,"pig skin; 40 Gy, 500 μg/g",4/6
same,Fields showing moist desquamation (10 weeks post-Irr.) %,"pig skin; 40 Gy, 500 μg/g",83%
NCCCNCCS [WR1065],DMF,CHO,1.9
